Measured values reported in patent publication US20260138958A1, “SUBSTITUTED N-PHENYLURACILS AND SALTS THEREOF, AND USE THEREOF AS HERBICIDAL ACTIVE SUBSTANCES” (Bayer Aktiengesellschaft, priority 2022, published 2026).

How the values were obtained:
Assay type in all cases: in vivo
[1] = test system: Echinochloa crus-galli (ECHCG); assay: Post-emergence herbicidal action, greenhouse pot test
Procedure, shortened: (§1)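 Post-em greenhouse pots, sandy loam; one-leaf stage (2–3 wk after sowing); WP/EC spray, aq. suspension/emulsion + 0.5% additive, 600 l/ha; optimum conditions ~3 wk; visual % activity vs untreated (100% = dead).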

[2] = test system: Viola tricolor (VIOTR); assay: as above; details: Viola tricolor, 504 h, 20 g/ha, read-out: Post-emergence effect at 20 g/ha against VIOTR in %
Procedure, shortened: as §1

[3] = test system: Polygonum convolvulus (POLCO); assay: as above; details: Fallopia convolvulus, 504 h
Procedure, shortened: as §1

[4] = test system: Pharbitis purpurea (PHBPU); assay: as above; details: Ipomoea purpurea, 504 h
Procedure, shortened: as §1

[5] = test system: Alopecurus myosuroides (ALOMY); assay: as above
Procedure, shortened: as §1

[6] = test system: Tripleurospermum inodorum (MATIN); assay: as above; details: Tripleurospermum inodorum, 504 h, 20 g/ha, read-out: Post-emergence effect at 20 g/ha against MATIN in %
Procedure, shortened: as §1

[7] = test system: Amaranthus retroflexus (AMARE); assay: as above; details: Amaranthus retroflexus, 504 h
Procedure, shortened: as §1

[8] = test system: Abutilon theophrasti (ABUTH); assay: as above; details: Abutilon theophrasti, 504 h
Procedure, shortened: as §1

[9] = test system: Veronica persica (VERPE); assay: as above; details: Veronica persica, 504 h
Procedure, shortened: as §1

[10] = test system: Setaria viridis (SETVI); assay: as above; details: Setaria viridis, 504 h
Procedure, shortened: as §1

[11] = test system: Triticum aestivum (TRZAS); assay: Post-emergence crop plant compatibility, greenhouse pot test; details: Triticum aestivum, in vivo
Procedure, shortened: (§2)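 Visual % damage scores were taken roughly 3 weeks after treatment, relative to untreated plants, where 100% means plants died and 0% means no difference. Plants received aqueous sprays (WP or EC, 0.5% additive, 600 l/ha) on green parts at the one-leaf stage, 2–3 weeks after sowing.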

[12] = test system: Zea mays (ZEAMX); assay: as above; details: Zea mays, in vivo
Procedure, shortened: as §2

[13] = test system: Glycine max (GLXMA); assay: as above; details: Glycine max, in vivo
Procedure, shortened: as §2

[14] = test system: Oryza sativa (ORYSA); assay: as above; details: Oryza sativa, in vivo
Procedure, shortened: as §2

[15] = test system: Avena fatura (AVEFA); assay: Comparative post-emergence herbicidal action, greenhouse pot test; details: Table B3 comparison, application rate 20 g/ha
Method: Seeds of monocotyledonous and dicotyledonous weeds and crop plants were placed in sandy loam in plastic or wood-fibre pots, covered with soil and cultivated in a greenhouse under controlled growth conditions. 2 to 3 weeks after sowing, the test plants were treated at the one-leaf stage. The compounds of the invention, formulated in the form of wettable powders (WP) or as emulsion concentrates (EC), were then sprayed onto the green parts of the plants as aqueous suspension or emulsion with addition of 0.5% additive at a water application rate of 600 l/ha (converted). After the test plants had been kept in the greenhouse under optimum growth conditions for about 3 weeks, the activity of the preparations was rated visually in comparison to untreated controls. For example, 100% activity=the plants have died, 0% activity=like control plants.
Tables B1-B5 below show the effects of inventive compounds (I.7-12, I.7-14, I.7-16) that have been obtained by the test method specified above on various harmful plants at an application rate corresponding to 20 g/ha or lower by comparison with structurally similar compounds known from the literature (“a-27”, “a-29”, disclosed in WO2002/098227).

Cn1c(C(F)(F)F)cc(=O)n(-c2cc(Oc3ccccc3OCC(=O)OCC3CC3)c(Br)cc2F)c1=O [I.8-1, Cyclopropylmethyl (2-{2-bromo-4-fluoro-5-[3-methyl-2,6-dioxo-4-(trifluoromethyl)-3,6-dihydropyrimidin-1(2H)-yl]phenoxy}phenoxy)acetate]
pest or weed control at 20 g/ha ([1]; Echinochloa crus-galli, 504 h, 20 g/ha, read-out: Post-emergence effect at 20 g/ha against ECHCG in %): 100%
pest or weed control at 20 g/ha [2]: 100%
pest or weed control at 5 g/ha ([3]; 5 g/ha, read-out: Post-emergence effect at 5 g/ha against POLCO in %): 100%
pest or weed control at 20 g/ha ([3]; 20 g/ha, read-out: Post-emergence effect at 20 g/ha against POLCO in %): 100%
pest or weed control at 5 g/ha ([4]; 5 g/ha, read-out: Post-emergence effect at 5 g/ha against PHBPU in %): 80%
pest or weed control at 20 g/ha ([4]; 20 g/ha, read-out: Post-emergence effect at 20 g/ha against PHBPU in %): 100%
pest or weed control at 20 g/ha ([5]; Alopecurus myosuroides, 504 h, 20 g/ha, read-out: Post-emergence effect at 20 g/ha against ALOMY in %): 100%
pest or weed control at 20 g/ha [6]: 100%
pest or weed control at 1.25 g/ha ([7]; 1.25 g/ha, read-out: Post-emergence effect at 1.25 g/ha against AMARE in %): 100%
pest or weed control at 5 g/ha ([7]; 5 g/ha, read-out: Post-emergence effect at 5 g/ha against AMARE in %): 100%
pest or weed control at 20 g/ha ([7]; 20 g/ha, read-out: Post-emergence effect at 20 g/ha against AMARE in %): 100%
pest or weed control at 5 g/ha ([8]; 5 g/ha, read-out: Post-emergence effect at 5 g/ha against ABUTH in %): 100%
pest or weed control at 20 g/ha ([8]; 20 g/ha, read-out: Post-emergence effect at 20 g/ha against ABUTH in %): 100%
pest or weed control at 5 g/ha ([9]; 5 g/ha, read-out: Post-emergence effect at 5 g/ha against VERPE in %): 100%
pest or weed control at 20 g/ha ([9]; 20 g/ha, read-out: Post-emergence effect at 20 g/ha against VERPE in %): 100%
pest or weed control at 5 g/ha ([10]; 5 g/ha, read-out: Post-emergence effect at 5 g/ha against SETVI in %): 100%
pest or weed control at 20 g/ha ([10]; 20 g/ha, read-out: Post-emergence effect at 20 g/ha against SETVI in %): 100%
Post-emergence effect at 1.25 g/ha against TRZAS in % [11]: 0%
Post-emergence effect at 20 g/ha against TRZAS in % [11]: 0%
Post-emergence effect at 1.25 g/ha against ZEAMX in % [12]: 0%
Post-emergence effect at 1.25 g/ha against GLXMA in % [13]: 0%
Post-emergence effect at 1.25 g/ha against ORYSA in % [14]: 0%
Post-emergence effect at 5 g/ha against ORYSA in % [14]: 0%
Post-emergence effect at 20 g/ha against ORYSA in % [14]: 20%

Cn1c(C(F)(F)F)cc(=O)n(-c2cc(Oc3ccccc3OCC(=O)OC3CCCC3)c(Cl)cc2F)c1=O [a-27, reference compound]
AVEFA (efficacy in %) [15]: 40%
ECHCG (efficacy in %) ([1]; Table B2 comparison, application rate 1.25 g/ha): 30%
ALOMY (efficacy in %) ([5]; Table B1 comparison, application rate 20 g/ha): 80%
